Tests used:
[1] = test system: transcription factor NF-κB; test: inhibition of activation of the transcription factor NF-κB
Excerpt: It is furthermore thought that the compounds of the formula (I), as described above or preferably described below, have an inflammation-inhibiting action. This property also supports the therapeutic and non-therapeutic treatment of photodermatosis. […] 1998, 95(6):729-31.

UV absorption spectrum = type: physicochemical
Excerpt: The absorption behaviour for the compound 3-(4-tert-butylphenyl)-3-hydroxy-1-(4-methoxy-phenyl)propan-1-one is depicted in FIG. 1 as representative.

[2] = photoconversion of compound A into the UVA filter avobenzone on irradiation; type: physicochemical
Excerpt: As representative of the compounds of the formula (I), the efficacy of 3-(4-tert-butylphenyl)-3-hydroxy-1-(4-methoxyphenyl)propan-1-one in vivo is confirmed in the experimental part, where the proportion of UVA filter formed by decomposition of 3-(4-tert-butylphenyl)-3-hydroxy-1-(4-methoxy-phenyl)propan-1-one on exposure to UV light under the selected conditions of the study is only 0.1% by weight.
Under the conditions of the in vivo study, conversion of compound A into the UVA filter avobenzone in an amount which could exert an influence on the skin appearances of the test subjects can be excluded.
This can be stated because if a 2% solution of compound A in Cosmacol® ELI (C12-13 alkyl lactate) is irradiated with UVA/UVB light (20/1) in a dose of 5 MED (corresponding to 250 kJ/m^2), 0.1% of avobenzone is formed by conversion.
Under the conditions of the in vivo experiment, a UVA dose of 20 J/cm^2 (corresponding to 200 kJ/m^2) is irradiated, i.e. even less than 0.1% of avobenzone will form by conversion under these conditions.

[3] = test system: test subjects with known PLE syndrome; test: in vivo comparative study, skin reactions on UVA irradiation of treated skin; set-up: key to skin reaction on UVA irradiation, treated skin: 0 denotes no reaction; ± denotes weak reaction; + denotes clear reaction; ++ denotes strong reaction; +++ denotes very strong reaction; details: for skin reaction on UVA irradiation, treated skin: 2.0% by wt. in O/W emulsion, 2 mg/cm^2 daily
Method: In the in vivo study described below, the following O/W emulsion is used:
A comparative study with positive control is carried out on 6 test subjects with known PLE syndrome. The study was carried out in Germany in April over a period of 5 days. The positive control was untreated, irradiated skin. The irradiation was carried out with 100% UVA light in a sub-erythemal dose, which was determined individually. The preparation was applied daily to half of the décolletage (2 mg/cm^2).
The measurements were carried out twice daily, 10 min. after application of the preparation and immediately after irradiation.
In the case of all test subjects, skin manifestations which have the presentation of polymorphic light eruption appeared on untreated skin. In case of 4 test subjects, no polymorphic light eruption was observed on treated skin. Only in the case of 2 test subjects was a weak reaction observed.

[4] = of 6 test subjects with known PLE syndrome, 5 days, UVA irradiation

## COc1ccc(C(=O)CC(O)c2ccc(C(C)(C)C)cc2)cc1 (stereo not shown) [Compound A, 3-(4-tert-butylphenyl)-3-hydroxy-1-(4-methoxyphenyl)-propan-1-one]
[1]
  activation of the transcription factor NF-κB: inhibits activation
UV absorption spectrum; UVA, 320-400 nm
  absorption in the UVA region: does not absorb in the UVA region
UV absorption spectrum; wavelength 215.5 nm
  absorption: 0.22
UV absorption spectrum; wavelength 273 nm
  absorption: 0.22
[2]; 2% solution in Cosmacol ELI (C12-13 alkyl lactate), UVA/UVB light (20/1), dose 5 MED (250 kJ/m^2)
  avobenzone formed by conversion: 0.1%
[2]; conditions of the in vivo experiment, UVA dose 20 J/cm^2 (200 kJ/m^2)
  avobenzone formed by conversion: less than 0.1%
[2]; under the selected conditions of the study
  proportion of UVA filter formed by decomposition on exposure to UV light: 0.1 % by weight
[3]; 6 test subjects, treated vs untreated irradiated skin
  effect on manifestations of polymorphic light eruption on irradiation: suppresses or significantly reduces the manifestations of polymorphic light eruption
[3]; [4]
  test subjects with no polymorphic light eruption observed on treated skin: 4 test subjects
  test subjects with weak reaction on treated skin: 2 test subjects
[3]; test subject 1, day 1, after irradiation
  skin reaction on UVA irradiation, treated skin: 0
[3]; test subject 1, day 1, before irradiation
  skin reaction on UVA irradiation, treated skin: 0
[3]; test subject 1, day 2, after irradiation
  skin reaction on UVA irradiation, treated skin: 0
[3]; test subject 1, day 2, before irradiation
  skin reaction on UVA irradiation, treated skin: 0
[3]; test subject 1, day 3, after irradiation
  skin reaction on UVA irradiation, treated skin: 0
[3]; test subject 1, day 3, before irradiation
  skin reaction on UVA irradiation, treated skin: 0
[3]; test subject 1, day 4, after irradiation
  skin reaction on UVA irradiation, treated skin: ±
[3]; test subject 1, day 4, before irradiation
  skin reaction on UVA irradiation, treated skin: ±
[3]; test subject 1, day 5, after irradiation
  skin reaction on UVA irradiation, treated skin: ±
[3]; test subject 1, day 5, before irradiation
  skin reaction on UVA irradiation, treated skin: ±
[3]; test subject 2, day 1, after irradiation
  skin reaction on UVA irradiation, treated skin: 0
[3]; test subject 2, day 1, before irradiation
  skin reaction on UVA irradiation, treated skin: 0
[3]; test subject 2, day 2, after irradiation
  skin reaction on UVA irradiation, treated skin: 0
[3]; test subject 2, day 2, before irradiation
  skin reaction on UVA irradiation, treated skin: 0
[3]; test subject 2, day 3, after irradiation
  skin reaction on UVA irradiation, treated skin: 0
[3]; test subject 2, day 3, before irradiation
  skin reaction on UVA irradiation, treated skin: 0
[3]; test subject 2, day 4, after irradiation
  skin reaction on UVA irradiation, treated skin: 0
[3]; test subject 2, day 4, before irradiation
  skin reaction on UVA irradiation, treated skin: 0
[3]; test subject 2, day 5, after irradiation
  skin reaction on UVA irradiation, treated skin: 0
[3]; test subject 2, day 5, before irradiation
  skin reaction on UVA irradiation, treated skin: 0
[3]; test subject 3, day 1, after irradiation
  skin reaction on UVA irradiation, treated skin: 0
[3]; test subject 3, day 1, before irradiation
  skin reaction on UVA irradiation, treated skin: 0
[3]; test subject 3, day 2, after irradiation
  skin reaction on UVA irradiation, treated skin: 0
[3]; test subject 3, day 2, before irradiation
  skin reaction on UVA irradiation, treated skin: 0
[3]; test subject 3, day 3, after irradiation
  skin reaction on UVA irradiation, treated skin: 0
[3]; test subject 3, day 3, before irradiation
  skin reaction on UVA irradiation, treated skin: 0
[3]; test subject 3, day 4, after irradiation
  skin reaction on UVA irradiation, treated skin: 0
[3]; test subject 3, day 4, before irradiation
  skin reaction on UVA irradiation, treated skin: 0
[3]; test subject 3, day 5, after irradiation
  skin reaction on UVA irradiation, treated skin: 0
[3]; test subject 3, day 5, before irradiation
  skin reaction on UVA irradiation, treated skin: 0
[3]; test subject 4, day 1, after irradiation
  skin reaction on UVA irradiation, treated skin: 0
[3]; test subject 4, day 1, before irradiation
  skin reaction on UVA irradiation, treated skin: 0
[3]; test subject 4, day 2, after irradiation
  skin reaction on UVA irradiation, treated skin: 0
[3]; test subject 4, day 2, before irradiation
  skin reaction on UVA irradiation, treated skin: 0
[3]; test subject 4, day 3, after irradiation
  skin reaction on UVA irradiation, treated skin: 0
[3]; test subject 4, day 3, before irradiation
  skin reaction on UVA irradiation, treated skin: 0
[3]; test subject 4, day 4, after irradiation
  skin reaction on UVA irradiation, treated skin: 0
[3]; test subject 4, day 4, before irradiation
  skin reaction on UVA irradiation, treated skin: 0
[3]; test subject 4, day 5, after irradiation
  skin reaction on UVA irradiation, treated skin: 0
[3]; test subject 4, day 5, before irradiation
  skin reaction on UVA irradiation, treated skin: 0
[3]; test subject 5, day 1, after irradiation
  skin reaction on UVA irradiation, treated skin: 0
[3]; test subject 5, day 1, before irradiation
  skin reaction on UVA irradiation, treated skin: 0
[3]; test subject 5, day 2, after irradiation
  skin reaction on UVA irradiation, treated skin: 0
[3]; test subject 5, day 2, before irradiation
  skin reaction on UVA irradiation, treated skin: 0
[3]; test subject 5, day 3, after irradiation
  skin reaction on UVA irradiation, treated skin: 0
[3]; test subject 5, day 3, before irradiation
  skin reaction on UVA irradiation, treated skin: 0
[3]; test subject 5, day 4, after irradiation
  skin reaction on UVA irradiation, treated skin: 0
[3]; test subject 5, day 4, before irradiation
  skin reaction on UVA irradiation, treated skin: 0
[3]; test subject 5, day 5, after irradiation
  skin reaction on UVA irradiation, treated skin: 0
[3]; test subject 5, day 5, before irradiation
  skin reaction on UVA irradiation, treated skin: 0
[3]; test subject 6, day 1, after irradiation
  skin reaction on UVA irradiation, treated skin: 0
[3]; test subject 6, day 1, before irradiation
  skin reaction on UVA irradiation, treated skin: 0
[3]; test subject 6, day 2, after irradiation
  skin reaction on UVA irradiation, treated skin: 0
[3]; test subject 6, day 2, before irradiation
  skin reaction on UVA irradiation, treated skin: 0
[3]; test subject 6, day 3, after irradiation
  skin reaction on UVA irradiation, treated skin: ±
[3]; test subject 6, day 3, before irradiation
  skin reaction on UVA irradiation, treated skin: ±
[3]; test subject 6, day 4, after irradiation
  skin reaction on UVA irradiation, treated skin: ±
[3]; test subject 6, day 4, before irradiation
  skin reaction on UVA irradiation, treated skin: ±
[3]; test subject 6, day 5, after irradiation
  skin reaction on UVA irradiation, treated skin: ±
[3]; test subject 6, day 5, before irradiation
  skin reaction on UVA irradiation, treated skin: ±

— patent US10660867B2, “Beta-hydroxyketones as topical active ingredients for the prevention or treatment of photodermatoses” (Merck Patent GmbH, priority 2015, dated 2020)
